# Assay results reported in patent US5235039A, “Substrates for HIV protease” (Eli Lilly and Company, priority 1991, dated 1993).
# Biological target: T1, HIV-1 protease (HIV-1 M:B_HXB2R, UniProt P04585)
# T1 construct: enzyme solution in MES-ALB buffer
# Assay: HIV-1 protease inhibitor assay (particle concentration fluorescence, Pandex)
# Format: biochemical
# Conditions: inhibitor at a concentration of about 7 μM; FIG. 1
# Method: The modified decapeptide is dissolved in a suitable buffer at a pH between about 5 and about 6 to form a solution at a desirable concentration, e.g. about 1.5 μg/ml. A separate solution of the protease in the same buffer is prepared at a sufficient concentration of protease to hydrolyze all substrate. To each well of a round-bottom, 96-well plate, e.g. a polystyrene microtiter plate, is added the enzyme solution followed by a buffered solution of the inhibitor compound. The solution of the inhibitor may be diluted in 20% aqueous dimethylsulfoxide when necessary for solubility. The plates are allowed to stand for about one hour at about room temperature before the substrate solution is added to each well. […] Unbound fluorescence is removed by filtration and subsequent washing with buffer. Any bound fluorescence is detected by excitation at 485 nm and reading the resulting epifluorescence at 535 nm. The amount of fluorescence indicates the extent to which the enzymatic reaction is inhibited.
# As described hereinabove the Pandex Plates used in the assay method are 96-well two-chamber plates (upper and lower chambers) wherein the chambers are separated by a […] pore size membrane. […] Any fluorescent marked cleavage fragment (unbound fluorescence) in the wells is washed from the well and out of the plate. […]
substance,measurement,value
Ac-Nal-Pro-Phe-Val-Sta-Leu-Phe-NH2,percent inhibition of the protease,100%
